Test results from publication PMC5716981, “Inhibition of A2A Adenosine Receptor Signaling in Cancer Cells Proliferation by the Novel Antagonist TP455” (Frontiers in Pharmacology, 2017).
Structures can show the parent of a compound that is named as a salt. Each block holds one molecule with its values, some of them ahead of it.

Experiments:
A549 cells = test: DELFIA cell proliferation (BrdU) in A549 cells; assay type: cell-based, human; conditions: for antagonism of CGS21680-induced cell proliferation / inhibition of CGS21680-induced cell proliferation by signalling inhibitor: 100 nM CGS21680, 24 h; for effect on cell proliferation: 100 nM; for inhibition of CGS21680-induced cell proliferation by signalling inhibitor: 10 μM inhibitor 30 min pretreatment
Experimental: (§1) Tumoral cell lines A375 (human skin malignant melanoma), A549 (adenocarcinomic human alveolar basal epithelial cells) and rat cell line MRMT-1 (rat breast carcinoma cells) were purchased from ATCC and were grown adherently at 37°C in 5% CO2/95% air. A375 and A549 were maintained in DMEM high glucose medium containing 10% fetal calf serum, penicillin (100 U/mL) and streptomycin ([…]) and MRMT-1 were grown in RPMI 1640 medium containing 10% fetal calf serum, penicillin (100 U/mL), streptomycin ([…]), and L-glutamine (2 mM). Adenosine receptor agonists and antagonists and inhibitors of kinases, were made up in dimethyl sulfoxide solution (DMSO) and then diluted in cell culture medium (0.1 max 0.2% of DMSO). An equal amount of DMSO was used in control cells (CTR).
(§2) The DELFIA assay was performed to determine cell proliferation according to the manufacturer’s protocol from PerkinElmer (Milan, Italy). The assay is a time-resolved fluoroimmunoassay based on the incorporation of BrdU into newly synthesized DNA strands of proliferating cells cultured in microliter plates. Incorporated BrdU is detected using a europium labeled monoclonal antibody and the fluorescence measured is proportional to the DNA synthesis in the cell population of each well. A375, A549, and MRMT-1 cells were cultured over night at 1000 cells/well in a 96-well plate (at a final volume of 100 μl per well), agonists and antagonists were added and the cells were incubated for 30′ before addition of the BrdU-Labeling solution 10 μl/well. The cells were then cultured for 24, 48, or 72 h. At the end of the incubation period, cells were fixed (fix solution 100 μl/well), added with 100 μl/well of Anti-BrdU-Eu (0.5 μg/ml) and incubated for 120 min at room temperature. After four washes, 200 μl of DELFIA Inducer were added at room temperature for 15 min and the Eu-fluorescence was detected through an Ensight Perkin Elmer-multimode plate reader (Perkin Elmer, Milan, Italy). Two kinds of controls were performed: the blank where no cells were added to the well but only culture medium and the background where no BrdU was added to the wells.

MRMT-1 cells = test: DELFIA cell proliferation (BrdU) in MRMT-1 cells; assay type: cell-based, rat; conditions: for effect on cell proliferation when tested alone: 48 h; for antagonism of CGS21680-induced cell proliferation / inhibition of CGS21680-induced cell proliferation by signalling inhibitor: 100 nM CGS21680, 48 h; for inhibition of CGS21680-induced cell proliferation by signalling inhibitor: 10 μM inhibitor 30 min pretreatment
Experimental: as §1, §2

A375 cells = test: DELFIA cell proliferation (BrdU) in A375 cells; assay type: cell-based, human; conditions: for effect on cell proliferation when tested alone: 48 h; for antagonism of CGS21680-induced cell proliferation / inhibition of CGS21680-induced cell proliferation by signalling inhibitor: 100 nM CGS21680, 48 h; for inhibition of CGS21680-induced cell proliferation by signalling inhibitor: 10 μM inhibitor 30 min pretreatment
Experimental: as §1, §2

pERK1/2 = test: AlphaScreen SureFire pERK1/2 assay in MRMT-1, A375 and A549 cells; assay type: cell-based, human and rat; conditions: for antagonism of CGS21680-induced ERK1/2 phosphorylation: 100 nM CGS21680 5 min; for inhibition of CGS21680-mediated ERK1/2 phosphorylation: 10 μM inhibitor, 100 nM CGS 21680, MRMT-1, A375 and A549 cells
Experimental: (§3) AlphaScreen SureFire phospho(p)ERK1/2(Thr202/Tyr204), pJNK1/3(pThr183/Tyr185), and p-AKT1/2/3 (pThr308) assay kits (Perkin Elmer, Milan, Italy) were utilized. Upon kinase phosphorylation and excitation at 680 nm, fluorescent signals at 615 nm are emitted. Cells were seeded in 100 μl culture medium into 96-well plates (30,000/well), and incubated at 37°C for 24 h. Cells were pretreated with various inhibitors and TP455 for 30 min. Then, receptors were maximally stimulated using 100 nM CGS 21680 and incubated for 5 min (ERK1/2, JNK1/2-MAPK) or 30 min (AKT) at 37°C. After agonist removal, lysis buffer was added, then donor and acceptor beads linked to specific anti-p-kinase- and anti-kinase-antibodies were dispensed, according to manufacturer instructions. Finally, fluorescent signals were detected through an Ensight Perkin Elmer-multimode plate reader (Perkin Elmer, Milan, Italy). Data were normalized to fold activation above basal p-kinase levels (=100). For inhibitor graphs, raw data were transformed into percentages relative to controls (basal level = 100%) in order to merge data from several experiments.

pJNK1/2 = test: AlphaScreen SureFire pJNK1/2 assay in MRMT-1, A375 and A549 cells; assay type: cell-based, human and rat; conditions: for antagonism of CGS21680-induced JNK1/2 phosphorylation: 100 nM CGS21680 5 min; for inhibition of CGS21680-mediated JNK1/2 phosphorylation: 10 μM inhibitor, 100 nM CGS 21680, MRMT-1, A375 and A549 cells
Experimental: as §3

pAKT = test: AlphaScreen SureFire pAKT assay in MRMT-1, A375 and A549 cells; assay type: cell-based, human and rat; conditions: for antagonism of CGS21680-induced AKT phosphorylation: 100 nM CGS21680 10 min; for inhibition of CGS21680-mediated AKT phosphorylation: 10 μM inhibitor, 100 nM CGS 21680, MRMT-1, A375 and A549 cells
Experimental: as §3, with “Then, receptors were maximally stimulated using 100 nM CGS 21680 and incubated for 5 min (ERK1/2, JNK1/2-MAPK) or 30 min (AKT) at 37°C.” left out

A2AARs [1] = target: A2AARs (Rattus norvegicus, UniProt P30543); test: biochemical
Sequence of A2AARs (Rattus norvegicus, UniProt P30543) (P30543 whole entry): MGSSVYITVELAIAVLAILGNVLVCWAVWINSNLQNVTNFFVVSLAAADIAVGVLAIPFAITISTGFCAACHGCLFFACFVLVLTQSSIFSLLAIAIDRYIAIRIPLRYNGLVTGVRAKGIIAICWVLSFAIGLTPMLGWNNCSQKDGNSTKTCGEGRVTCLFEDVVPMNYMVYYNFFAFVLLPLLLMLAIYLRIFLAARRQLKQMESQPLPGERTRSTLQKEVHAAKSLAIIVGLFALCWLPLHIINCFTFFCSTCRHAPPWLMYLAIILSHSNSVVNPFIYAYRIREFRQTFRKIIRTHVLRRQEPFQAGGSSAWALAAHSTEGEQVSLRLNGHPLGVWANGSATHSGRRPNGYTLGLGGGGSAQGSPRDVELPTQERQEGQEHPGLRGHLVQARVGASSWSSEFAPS
Experimental: (§4) For membrane preparation the culture medium was removed. […] The cell suspension was homogenized with Polytron and the homogenate was spun for 10 min at 1000 g. The supernatant was then centrifuged for 30 min at 100,000g. The membrane pellet was resuspended in 50 mM Tris HCl buffer pH 7.4, 10 mM MgCl2. […] Then the suspension was frozen at -80°C.
(§5) At the end of the incubation, bound and free radioactivity were separated by filtering, in a Brandel cell harvester, the assay mixture through Whatman GF/B glass-fiber filters. The filter bound radioactivity was counted in a liquid Scintillation Counter Tri Carb Packard 2500 TR (Perkin-Elmer Life and Analytical Sciences, Boston, MA, United States).
(§6) LIGAND was also used to determine inhibitory binding constant (Ki) values from the competition binding experiments. All values in the figures and text are expressed as mean ± standard error (SE) of three independent experiments.

A2AARs [2] = target: T1, A2AARs (Homo sapiens, UniProt P29274); test: [3H]ZM241385 competition binding in A375 melanoma membranes
T1 sequence (P29274 whole entry): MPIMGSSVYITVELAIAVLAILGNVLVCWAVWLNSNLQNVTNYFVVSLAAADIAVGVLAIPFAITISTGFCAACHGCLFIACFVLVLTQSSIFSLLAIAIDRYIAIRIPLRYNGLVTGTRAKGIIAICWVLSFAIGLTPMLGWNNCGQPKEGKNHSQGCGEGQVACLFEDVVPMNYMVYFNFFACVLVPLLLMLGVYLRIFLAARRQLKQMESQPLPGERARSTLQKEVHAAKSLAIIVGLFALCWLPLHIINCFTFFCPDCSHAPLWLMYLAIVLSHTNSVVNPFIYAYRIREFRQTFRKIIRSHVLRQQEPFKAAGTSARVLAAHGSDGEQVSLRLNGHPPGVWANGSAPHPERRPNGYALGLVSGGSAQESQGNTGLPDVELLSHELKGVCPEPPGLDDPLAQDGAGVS
Experimental: as §4, §5, §6

A2AARs [3] = target: T1, A2AARs; test: [3H]ZM241385 competition binding in A549 lung carcinoma membranes
Experimental: as §4, §5, §6

[4] = 100 nM antagonist 30 min pretreatment
[5] = 100 nM antagonist 30 min pretreatment, MRMT-1, A375 and A549 cells
[6] = 100 nM, 0-60 min, MRMT-1, A375 and A549 cells
[7] = 10 nM antagonist 30 min pretreatment, MRMT-1, A375 and A549 cells

Compound: Nc1nc(NCCc2ccc(O)cc2)nc2nc(-c3ccco3)nn12 [ZM241385, 4-(2-[7-Amino-2-(2-furyl) [1,2,4]triazolo[2,3-a][1,3,5]triazin-5-ylamino]ethyl)phenol]
effect on cell proliferation when tested alone (A549 cells; 100 nM alone, 24 h): did not alter cell proliferation
antagonism of CGS21680-induced cell proliferation (A549 cells; [4]): completely block the agonist effect
effect on cell proliferation when tested alone (MRMT-1 cells; 100 nM alone): did not alter cell proliferation
antagonism of CGS21680-induced cell proliferation (MRMT-1 cells; [4]): completely block the agonist effect
effect on cell proliferation when tested alone (A375 cells; 100 nM alone): did not alter cell proliferation
antagonism of CGS21680-induced cell proliferation (A375 cells; [4]): completely block the agonist effect
antagonism of CGS21680-induced ERK1/2 phosphorylation (pERK1/2; [5]): completely reverted
antagonism of CGS21680-induced JNK1/2 phosphorylation (pJNK1/2; [5]): completely reverted
antagonism of CGS21680-induced AKT phosphorylation (pAKT; [5]): completely reverted

Compound: CCNC(=O)[C@H]1O[C@@H](n2cnc3c(N)nc(NCCc4ccc(CCC(=O)O)cc4)nc32)[C@H](O)[C@@H]1O [CGS21680, 2-p-(2-Carboxyethyl)phenethylamino-5′-N-ethylcarboxamido-adenosine hydrochloride hydrate]
effect on cell proliferation (A549 cells; 48 and 72 h): not more present
effect on cell proliferation (A549 cells; 24 h): slightly increased cell proliferation
effect on cell proliferation (MRMT-1 cells; 10 nM, 48 and 72 h): raised cell vitality
effect on cell proliferation (MRMT-1 cells; 100 nM, 24, 48 and 72 h): significant stimulation
effect on cell proliferation (A375 cells; 100 nM, only at 48 h): stimulatory effect of cell proliferation
ERK1/2 phosphorylation time course (pERK1/2; [6]): reached a maximal effect after 5 min
JNK1/2 phosphorylation time course (pJNK1/2; [6]): reached a maximal effect after 5 min
AKT phosphorylation time course (pAKT; [6]): started to increase after 10 min

Compound: N#CC(=C(/N)Sc1ccccc1N)/C(C#N)=C(/N)Sc1ccccc1N [U0126]
inhibition of CGS21680-induced cell proliferation by signalling inhibitor (A549 cells): strongly reduced
inhibition of CGS21680-induced cell proliferation by signalling inhibitor (MRMT-1 cells): strongly reduced
inhibition of CGS21680-induced cell proliferation by signalling inhibitor (A375 cells): strongly reduced

Compound: Oc1c2ccccc2c2c3c(cccc13)N=N2 [SP600125, 1,9-Pyrazoloanthrone]
inhibition of CGS21680-induced cell proliferation by signalling inhibitor (A549 cells): strongly reduced
inhibition of CGS21680-induced cell proliferation by signalling inhibitor (MRMT-1 cells): strongly reduced
inhibition of CGS21680-induced cell proliferation by signalling inhibitor (A375 cells): strongly reduced

Ki (A2AARs [1]): 6.1 pM
Ki (A2AARs [2]): 5.8 pM
Ki (A2AARs [3]): 5.3 pM
Compound: COc1ccccc1CNc1nc(N)c2nc(-c3ccco3)sc2n1 [TP455, 2-(2-furanyl)-N^5-(2-methoxybenzyl)[1,3]thiazolo[5,4-d]pyrimidine-5,7-diammine]
effect on cell proliferation when tested alone (A549 cells; 10 nM alone, 24 h): did not alter cell proliferation
antagonism of CGS21680-induced cell proliferation (A549 cells; 10 nM antagonist): antagonized
effect on cell proliferation when tested alone (MRMT-1 cells; 10 nM alone): did not alter cell proliferation
antagonism of CGS21680-induced cell proliferation (MRMT-1 cells; 10 nM antagonist): antagonized
effect on cell proliferation when tested alone (A375 cells; 10 nM alone): did not alter cell proliferation
antagonism of CGS21680-induced cell proliferation (A375 cells; 10 nM antagonist): antagonized
antagonism of CGS21680-induced ERK1/2 phosphorylation (pERK1/2; [7]): potently inhibited
antagonism of CGS21680-induced JNK1/2 phosphorylation (pJNK1/2; [7]): potently inhibited
antagonism of CGS21680-induced AKT phosphorylation (pAKT; [7]): potently inhibited

Compound: Nc1nc2c(cnn2CCc2ccccc2)c2nc(-c3ccco3)nn12 [SCH58261]
Ki (A2AARs [1]): 3260 pM

Compound: COc1ccc2c(c1)CC[C@@H]1[C@@H]2CC[C@]2(C)[C@@H](NCCCCCCN3C(=O)C=CC3=O)CC[C@@H]12 [U73122, 1-[6-[[(17β)-3-Methoxyestra-1,3,5(10)-trien-17-yl]amino]hexyl]-1H-pyrrole-2,5-dione]
inhibition of CGS21680-induced cell proliferation by signalling inhibitor (A549 cells): able to antagonize the stimulatory effect
inhibition of CGS21680-induced cell proliferation by signalling inhibitor (MRMT-1 cells): able to antagonize the stimulatory effect
inhibition of CGS21680-induced cell proliferation by signalling inhibitor (A375 cells): able to antagonize the stimulatory effect
inhibition of CGS21680-mediated ERK1/2 phosphorylation (pERK1/2): strongly reduced
inhibition of CGS21680-mediated JNK1/2 phosphorylation (pJNK1/2): strongly reduced
inhibition of CGS21680-mediated AKT phosphorylation (pAKT): strongly reduced

Compound: Nc1nc2ccc(Cl)cc2c2nc(-c3ccco3)nn12 [CGS15943]
Ki (A2AARs [1]): 2150 pM

Compound: Nc1ncnc2c1ncn2C1CCCO1 (stereo not shown) [SQ22,536]
inhibition of CGS21680-induced cell proliferation by signalling inhibitor (A549 cells): did not block the agonist effect
inhibition of CGS21680-induced cell proliferation by signalling inhibitor (MRMT-1 cells): did not block the agonist effect
inhibition of CGS21680-induced cell proliferation by signalling inhibitor (A375 cells): did not block the agonist effect

Compound: CC(=O)c1c(O)c(C)c(O)c(Cc2c(O)c3c(c(C(=O)C=Cc4ccccc4)c2O)OC(C)(C)C=C3)c1O [rottlerin, 1-[6-[(3-Acetyl-2,4,6-trihydroxy-5-methylphenyl)methyl]-5,7-dihydroxy-2,2-dimethyl-2H-1-benzopyran-8-yl]-3-phenyl-2-propen-1-one]
inhibition of CGS21680-induced cell proliferation by signalling inhibitor (A549 cells): able to antagonize the stimulatory effect
inhibition of CGS21680-induced cell proliferation by signalling inhibitor (MRMT-1 cells): able to antagonize the stimulatory effect
inhibition of CGS21680-induced cell proliferation by signalling inhibitor (A375 cells): able to antagonize the stimulatory effect
inhibition of CGS21680-mediated ERK1/2 phosphorylation (pERK1/2): strongly reduced
inhibition of CGS21680-mediated JNK1/2 phosphorylation (pJNK1/2): strongly reduced
inhibition of CGS21680-mediated AKT phosphorylation (pAKT): strongly reduced

Compound: Oc1ccc(-c2nc(-c3ccc(F)cc3)c(-c3ccncc3)[nH]2)cc1 [SB202190, 4-(4-Fluorophenyl)-2-(4-hydroxyphenyl)-5-(4-pyridyl)-1H-imidazole]
inhibition of CGS21680-induced cell proliferation by signalling inhibitor (A549 cells): did not
inhibition of CGS21680-induced cell proliferation by signalling inhibitor (MRMT-1 cells): did not
inhibition of CGS21680-induced cell proliferation by signalling inhibitor (A375 cells): did not

Compound: CCCCCCCCCCCCCCCCCCOC[C@H](COP(=O)(O)O[C@H]1[C@H](O)[C@@H](O)[C@H](O)C[C@H]1OC)OC [SH5, D-3-Deoxy-2-O-methyl-myo-inositol 1-[(R)-2-methoxy-3-(octadecyloxy)propyl hydrogen phosphate]]
inhibition of CGS21680-induced cell proliferation by signalling inhibitor (A549 cells): strongly reduced
inhibition of CGS21680-induced cell proliferation by signalling inhibitor (MRMT-1 cells): strongly reduced
inhibition of CGS21680-induced cell proliferation by signalling inhibitor (A375 cells): strongly reduced
